# According to patent publication US20020010128A1, “Treatment of hyperproliferative, inflammatory and related mucocutaneous disorders using inhibitors of mevalonate synthesis and metabolism” (priority 2000, published 2002):
# Tests used:
# [1] = tested on: Murine thymic T cells; experiment: Murine thymic T cell proliferation (ConA stimulation, MTT assay); format: cell-based; conditions: for effect of mevalonate on inhibition of T cell proliferation: presence of 1 mM mevalonate; for inhibition of T cell proliferation: murine thymic T cells, different concentrations
# Experimental: Murine thymic T cells were stimulated with Concanavalin A and incubated for 72 hr, and proliferation was then assessed by measuring viable cell number using the MTT assay (OD 570 nm proportional to viable cell number). Different concentrations of mevastatin and oxysterol alone (CP compounds; Panel A) or oxysterol combined with lanolin (Panel B) were added to the cells 1 hr following ConA treatment (FIG. 2).
# T cells were incubated with different concentrations of mevastatin (CP 115) alone or in the presence of 1 mM mevalonate (MA). The inhibition of T cell proliferation by mevastatin was prevented by addition of mevalonic acid, the product of the HMG-CoA reductase reaction (FIG. 3).
# Murine thymic T cells were incubated with different concentrations of 25-hydroxycholesterol (CP 105; Panel A) or an oxysterol combined with lanolin (C-010; Panel B) in the absence or presence of 1 mM mevalonate (MA).
# To further test this synergistic effect, T cells were incubated with different concentrations of mevastatin alone or in combination with 0.25 μg/ml 25-hydroxycholesterol (CP 105; FIG. 5, Panel A) or 10 μg/ml of an oxysterol combined with lanolin (C-010; FIG. 5, Panel B). The data was expressed as percent of control proliferation. CP 105 and C-010 inhibited T cell proliferation 14% and 28% at the indicated concentrations, respectively. Thus minimally effective concentrations of 25-hydroxycholesterol and C-0010-010 decreased the IC50 of mevastatin by a factor greater than 10-fold (FIG. 5). This experiment confirmed that the inhibition of T cell proliferation by mevastatin is advantageously potentiated by oxysterols.
# Murine thymic T cells were incubated with different concentrations of an inhibitor of geranylgeranyl transferase (GGTI).
# [2] = tested on: NFAT; experiment: NFAT-regulated reporter gene in transiently transfected Jurkat cells; format: cell-based, human; conditions: for NFAT activity induced by ionomycin and dominant active ras / NFAT activity stimulated by PMA and dominant active calcineurin: Jurkat cells
# From the text: The effects of lovastatin on NFAT activation and IL-2 gene expression were investigated in Jurkat T cells (human leukemia T cells). Lovastatin inhibited the expression of an NFAT-regulated reporter gene in transiently transfected Jurkat cells stimulated with ionomycin and PMA or with thapsigargin + PMA.
# NFAT is synergistically activated by the Ca^2+/calcineurin and PKC/ras/MAPK pathways. To gain further insight into the novel mechanism of action of lovastatin, dominant active forms of calcineurin and ras were expressed in Jurkat cells to bypass early signaling events mediated by ionomycin (i.e., Ca^2+) and PMA (i.e., PKC).
# [3] = tested on: TNF-α; experiment: TNF-alpha secretion from stimulated Jurkat cells; format: cell-based, human; conditions: ionomycin and PMA-stimulated Jurkat cells
# [4] = tested on: RSV-driven control reporter gene; experiment: RSV-driven control reporter gene in Jurkat cells; format: cell-based, human
# From the text: (§1) The effects of lovastatin on NFAT activation and IL-2 gene expression were investigated in Jurkat T cells (human leukemia T cells).
# [5] = tested on: Asthma patients; experiment: Treatment of asthma patients with aerosolized lovastatin; format: in vivo, human; conditions: aerosolized form or nasal inhaler
# [6] = tested on: RBL-2H3 mucosal mast cell line; experiment: 3H-serotonin release (degranulation) from RBL-2H3 mast cells; format: cell-based
# From the text: The RBL-2H3 mucosal mast cell line has been used extensively to study stimulus secretion coupling. Treatment with a calcium ionophore or antigenic crosslinking of the high affinity receptor for IgE on these cells leads to degranulation and the secretion of various proinflammatory mediators, including biogenic amines such as histamine and serotonin.
# [7] = tested on: IL-2 mRNA; experiment: IL-2 mRNA accumulation in stimulated Jurkat cells; format: cell-based, human; conditions: Jurkat cells stimulated with ionomycin and PMA
# From the text: (§2) Since NFAT plays a critical role in IL-2 gene transcription, the effects of lovastatin on IL-2 mRNA levels and IL-2 secretion from stimulated lymphoid cells were investigated.
# [8] = tested on: IL-2; experiment: IL-2 secretion from stimulated Jurkat cells; format: cell-based, human
# From the text: as §2
# [9] = tested on: DNFB-induced contact hypersensitivity in mice; experiment: DNFB-induced contact hypersensitivity in mice (ear swelling); format: in vivo, mouse; conditions: 1% topical, applied 30 minutes or one hour after challenge, 48 hours post-challenge
# Experimental: The protocol involved shaving the posterior portion of the backs of anesthetized 7-8 week old female Balb/c mice with electric clippers. […] The concentration of DNCB in the sensitizing solution ranged from 0.5% to 4% w/v or 0.1 to 0.5% for DNFB. […] Post challenge ear thickness measurements were taken at 8, 16, 24, 32, 48, 56 and 72 hours. […] However, a swelling response of at least 50% above baseline was considered reasonable.
# (§3) The percent suppression for each formulation was determined at 48 hours post-challenge.
# [10] = tested on: human IL-2 promoter; experiment: Human IL-2 promoter activation in Jurkat cells; format: cell-based
# From the text: as §1
# [11] = tested on: oxazolone-induced contact hypersensitivity in mice; experiment: Oxazolone-induced contact hypersensitivity in mice; format: in vivo, mouse; conditions: topical sensitizer oxazolone instead of DNFB
# Experimental: Challenging mouse ears with haptens, such as 1-chloro-2,4-dinitrobenzene (DNCB), 2,4-dinitrofluorobenzene (DNFB), or oxazolone after a 5 day sensitization phase, induced severe swelling associated with an immune response that included a memory T cell infiltrate. Maximum swelling occurred between 24 and 48 hours after challenge. Thus, DNFB, DCNB and oxazolone were considered to induce delayed contact hypersensitivity.
# The protocol involved shaving the posterior portion of the backs of anesthetized 7-8 week old female Balb/c mice with electric clippers. DNCB in acetone:olive oil (4:1), DNFB in acetone alone or oxazolone (15% oxazolone in 97% acetone/3% DMSO) was applied to the shaved area in a volume of 50 μl (DNCB), 100 μl (DNFB), or 20 μl (oxazolone). The concentration of DNCB in the sensitizing solution ranged from 0.5% to 4% w/v or 0.1 to 0.5% for DNFB. Five days after sensitization, the thickness of both ears was measured with a spring-loaded micrometer and both surfaces of the ears were challenged with either 10 μl of DNCB in acetone:olive oil ranging in concentration from 0.25%-2.5% w/v, 10 μl of DNFB in acetone at 0.1%, 10 μl 2% oxazolone in 97% acetone/3% DMSO, or vehicle alone. Post challenge ear thickness measurements were taken at 8, 16, 24, 32, 48, 56 and 72 hours. […]
# as §3
# [12] = tested on: TPA-induced ear swelling in mice; experiment: TPA-induced ear swelling, mouse acute irritant dermatitis model; format: in vivo
# Experimental: Mevastatin was tested topically at 0.5% with several oxysterols known to downregulate HMG-CoA reductase expression, including 25-hydroxycholesterol, in the mouse acute irritant dermatitis model. TPA was applied topically to the ears of mice and the resultant swelling response was measured 24 hr later. Compounds or vehicle alone were topically applied to ears 1 and 6 hr following TPA treatment. The data was expressed as a percent inhibition of the swelling response in the presence of compounds as compared to ears treated with vehicle only.
# The phorbol ester 12-0-tetradecanoyl-13-phorbol acetate (TPA) is the active ingredient in […]. TPA induced skin inflammation peaked between 24 and 30 hours when the ear was the target and between 8 and 16 hours when the flank was the target. These two alternative targets allowed to determine both the short and the longer term activity of different compounds in suppressing TPA-induced inflammation. […]
# The model systems described in Example 9 were employed, using TPA challenge as a model for acute inflammation. […] The percent suppression for each formulation was determined as described in Example 9 at 30 hours post-challenge (for TPA). Results are reported as the percent suppression of inflammation compared to untreated controls, as measured by ear thickness.
smiles,measurement,setting,value
C[C@H](CCCC(C)(C)O)[C@H]1CC[C@H]2[C@@H]3CC=C4C[C@@H](O)CC[C@]4(C)[C@H]3CC[C@]12C [25-hydroxycholesterol],inhibition at 0.25 µg/mL,"[1]; Mus musculus, T-cell, 0.25 μg/ml",14%
same,effect of mevalonate on inhibition of T cell proliferation,[1],not prevented by mevalonic acid
COC(=O)[C@H](CC(C)C)NC(=O)c1ccc(NC[C@@H](N)CS)cc1-c1ccccc1 [GGTI-286],inhibition of T cell proliferation,[1],Dose-dependent inhibition
CN(C)CCCn1cc(C2=C(c3c[nH]c4ccccc34)C(=O)NC2=O)c2ccccc21 [Gö6850],NFAT activity induced by ionomycin and dominant active ras,[2],inactive
same,NFAT activity stimulated by PMA and dominant active calcineurin,[2],inhibited
CC[C@H](C)C(=O)O[C@H]1C[C@@H](C)C=C2C=C[C@H](C)[C@H](CC[C@@H]3C[C@@H](O)CC(=O)O3)[C@H]21 [lovastatin],TNF-α secretion,[3],inhibit
same,transcription from RSV-driven control reporter gene,[4],did not affect
same,relief of lung constriction and inflammation in asthma patients,[5],more effective relief of lung constriction and inflammation
same,release of 3H-serotonin,"[6]; RBL-2H3 cells stimulated with antigen or calcium ionophore, dose-dependent",inhibited
same,effect of mevalonic acid on inhibition of 3H-serotonin release,[6]; co-incubation with mevalonic acid,not reversed
same,IL-2 mRNA accumulation,[7],inhibited
same,NFAT activity induced by ionomycin and dominant active ras,[2],strongly inhibited
same,NFAT activity stimulated by PMA and dominant active calcineurin,[2],relatively insensitive
same,expression of NFAT-regulated reporter gene,[2]; Jurkat cells stimulated with ionomycin and PMA or thapsigargin + PMA,inhibited
same,effect of mevalonic acid on inhibition of NFAT reporter activity,[2]; preincubation of Jurkat cells with mevalonic acid,did not reverse
same,IC50,"[2]; stated as similar to the IL-2 secretion IC50, read-out: IC50, inhibition of NFAT-dependent reporter activity",~12 µM
same,IC50,"[8]; Jurkat cells stimulated with ionomycin and PMA, read-out: IC50, inhibition of IL-2 secretion",12 µM
same,effect of mevalonic acid on inhibition of IL-2 secretion,[8]; addition of mevalonic acid,not reversed
same,suppression of DNFB-induced delayed contact hypersensitivity (ear swelling),[9],reduced delayed contact hypersensitivity
same,activation of the human IL-2 promoter,[10],inhibited activation
same,suppression of oxazolone-induced contact hypersensitivity,[11],dose-dependent
CC[C@H](C)C(=O)O[C@H]1CCC=C2C=C[C@H](C)[C@H](CC[C@@H]3C[C@@H](O)CC(=O)O3)[C@H]21 [mevastatin],inhibition of T cell proliferation,[1],potently inhibit
same,effect of mevalonate on inhibition of T cell proliferation,[1],reversed by mevalonate
same,"percent suppression of TPA-induced acute inflammation, measured by ear thickness","[12]; 0.5% in ethanol/cyclohexane (1:1), applied 30 minutes or one hour after challenge, 30 hours post-challenge",58%
same,inhibition of TPA-induced ear swelling,"[12]; 0.5% topical, applied 1 and 6 hr after TPA, swelling measured 24 hr later",significantly inhibited
